Numbers after ± are expanded uncertainties.
Assay: wn = mass fraction of the nth substance listed
Conditions: 101 kPa, Liquid

Compound: CCC[n+]1ccn(C)c1.[Br-] [1-methyl-3-propylimidazolium bromide] + CC#N
- mass density (288.15 K, w1 = 0.0042): 788.991 ± 1.4 kg/m3
- speed of sound (288.15 K, w1 = 0.0042): 1320.2 ± 1.4 m/s
- mass density (288.15 K, w1 = 0.0061): 789.726 ± 1.4 kg/m3
- speed of sound (288.15 K, w1 = 0.0061): 1320.5 ± 1.4 m/s
- mass density (288.15 K, w1 = 0.0082): 790.532 ± 1.4 kg/m3
- speed of sound (288.15 K, w1 = 0.0082): 1321.1 ± 1.4 m/s
- mass density (288.15 K, w1 = 0.0107): 791.47 ± 1.4 kg/m3
- speed of sound (288.15 K, w1 = 0.0107): 1321.5 ± 1.4 m/s
- mass density (288.15 K, w1 = 0.0124): 792.123 ± 1.4 kg/m3
- speed of sound (288.15 K, w1 = 0.0124): 1322 ± 1.4 m/s
- mass density (288.15 K, w1 = 0.0161): 793.533 ± 1.3 kg/m3
- speed of sound (288.15 K, w1 = 0.0161): 1322.6 ± 1.4 m/s
- mass density (288.15 K, w1 = 0.0206): 795.242 ± 1.3 kg/m3
- speed of sound (288.15 K, w1 = 0.0206): 1323.5 ± 1.4 m/s
- mass density (288.15 K, w1 = 0.0251): 796.939 ± 1.3 kg/m3
- speed of sound (288.15 K, w1 = 0.0251): 1324.4 ± 1.4 m/s
- mass density (288.15 K, w1 = 0.0298): 798.688 ± 1.3 kg/m3
- speed of sound (288.15 K, w1 = 0.0298): 1325.3 ± 1.4 m/s
- mass density (288.15 K, w1 = 0.0347): 800.578 ± 1.3 kg/m3
- speed of sound (288.15 K, w1 = 0.0347): 1326.4 ± 1.4 m/s
- mass density (288.15 K, w1 = 0.0407): 802.812 ± 1.3 kg/m3
- speed of sound (288.15 K, w1 = 0.0407): 1327.3 ± 1.4 m/s
- mass density (288.15 K, w1 = 0.0493): 806.071 ± 1.3 kg/m3
- speed of sound (288.15 K, w1 = 0.0493): 1329.1 ± 1.4 m/s
- mass density (288.15 K, w1 = 0.0605): 810.335 ± 1.3 kg/m3
- speed of sound (288.15 K, w1 = 0.0605): 1331 ± 1.4 m/s
- mass density (288.15 K, w1 = 1): 1323.47 ± 3.3 kg/m3
- speed of sound (288.15 K, w1 = 1): 1699.3 ± 2.6 m/s
- mass density (293.15 K, w1 = 0.0042): 783.623 ± 1.4 kg/m3
- speed of sound (293.15 K, w1 = 0.0042): 1300.1 ± 1.4 m/s
- mass density (293.15 K, w1 = 0.0061): 784.364 ± 1.4 kg/m3
- speed of sound (293.15 K, w1 = 0.0061): 1300.3 ± 1.4 m/s
- mass density (293.15 K, w1 = 0.0082): 785.181 ± 1.4 kg/m3
- speed of sound (293.15 K, w1 = 0.0082): 1301.1 ± 1.4 m/s
- mass density (293.15 K, w1 = 0.0107): 786.115 ± 1.4 kg/m3
- speed of sound (293.15 K, w1 = 0.0107): 1301.3 ± 1.4 m/s
- mass density (293.15 K, w1 = 0.0124): 786.772 ± 1.4 kg/m3
- speed of sound (293.15 K, w1 = 0.0124): 1302 ± 1.4 m/s
- mass density (293.15 K, w1 = 0.0161): 788.186 ± 1.4 kg/m3
- speed of sound (293.15 K, w1 = 0.0161): 1302.5 ± 1.4 m/s
- mass density (293.15 K, w1 = 0.0206): 789.902 ± 1.4 kg/m3
- speed of sound (293.15 K, w1 = 0.0206): 1303.4 ± 1.4 m/s
- mass density (293.15 K, w1 = 0.0251): 791.606 ± 1.4 kg/m3
- speed of sound (293.15 K, w1 = 0.0251): 1304.3 ± 1.4 m/s
- mass density (293.15 K, w1 = 0.0298): 793.361 ± 1.4 kg/m3
- speed of sound (293.15 K, w1 = 0.0298): 1305.3 ± 1.4 m/s
- mass density (293.15 K, w1 = 0.0347): 795.262 ± 1.3 kg/m3
- speed of sound (293.15 K, w1 = 0.0347): 1306.5 ± 1.4 m/s
- mass density (293.15 K, w1 = 0.0407): 797.5 ± 1.3 kg/m3
- speed of sound (293.15 K, w1 = 0.0407): 1307.4 ± 1.4 m/s
- mass density (293.15 K, w1 = 0.0493): 800.772 ± 1.3 kg/m3
- speed of sound (293.15 K, w1 = 0.0493): 1309.3 ± 1.4 m/s
- mass density (293.15 K, w1 = 0.0605): 805.049 ± 1.3 kg/m3
- speed of sound (293.15 K, w1 = 0.0605): 1311.1 ± 1.4 m/s
- mass density (293.15 K, w1 = 1): 1319.84 ± 3.3 kg/m3
- speed of sound (293.15 K, w1 = 1): 1685 ± 2.6 m/s
- mass density (298.15 K, w1 = 0.0042): 778.237 ± 1.4 kg/m3
- speed of sound (298.15 K, w1 = 0.0042): 1280 ± 1.4 m/s
- mass density (298.15 K, w1 = 0.0061): 778.979 ± 1.4 kg/m3
- speed of sound (298.15 K, w1 = 0.0061): 1280.2 ± 1.4 m/s
- mass density (298.15 K, w1 = 0.0082): 779.798 ± 1.4 kg/m3
- speed of sound (298.15 K, w1 = 0.0082): 1281 ± 1.4 m/s
- mass density (298.15 K, w1 = 0.0107): 780.735 ± 1.4 kg/m3
- speed of sound (298.15 K, w1 = 0.0107): 1281.2 ± 1.4 m/s
- mass density (298.15 K, w1 = 0.0124): 781.397 ± 1.4 kg/m3
- speed of sound (298.15 K, w1 = 0.0124): 1281.9 ± 1.4 m/s
- mass density (298.15 K, w1 = 0.0161): 782.814 ± 1.4 kg/m3
- speed of sound (298.15 K, w1 = 0.0161): 1282.4 ± 1.4 m/s
- mass density (298.15 K, w1 = 0.0206): 784.538 ± 1.4 kg/m3
- speed of sound (298.15 K, w1 = 0.0206): 1283.4 ± 1.4 m/s
- mass density (298.15 K, w1 = 0.0251): 786.248 ± 1.4 kg/m3
- speed of sound (298.15 K, w1 = 0.0251): 1284.3 ± 1.4 m/s
- mass density (298.15 K, w1 = 0.0298): 788.011 ± 1.4 kg/m3
- speed of sound (298.15 K, w1 = 0.0298): 1285.3 ± 1.4 m/s
- mass density (298.15 K, w1 = 0.0347): 789.919 ± 1.4 kg/m3
- speed of sound (298.15 K, w1 = 0.0347): 1286.6 ± 1.4 m/s
- mass density (298.15 K, w1 = 0.0407): 792.166 ± 1.4 kg/m3
- speed of sound (298.15 K, w1 = 0.0407): 1287.5 ± 1.4 m/s
- mass density (298.15 K, w1 = 0.0493): 795.452 ± 1.3 kg/m3
- speed of sound (298.15 K, w1 = 0.0493): 1289.4 ± 1.4 m/s
- mass density (298.15 K, w1 = 0.0605): 799.743 ± 1.3 kg/m3
- speed of sound (298.15 K, w1 = 0.0605): 1291.3 ± 1.4 m/s
- mass density (298.15 K, w1 = 1): 1316.22 ± 3.3 kg/m3
- speed of sound (298.15 K, w1 = 1): 1672 ± 2.6 m/s
- mass density (303.15 K, w1 = 0.0042): 772.813 ± 1.4 kg/m3
- speed of sound (303.15 K, w1 = 0.0042): 1259.7 ± 1.4 m/s
- mass density (303.15 K, w1 = 0.0061): 773.562 ± 1.4 kg/m3
- speed of sound (303.15 K, w1 = 0.0061): 1260 ± 1.4 m/s
- mass density (303.15 K, w1 = 0.0082): 774.387 ± 1.4 kg/m3
- speed of sound (303.15 K, w1 = 0.0082): 1260.9 ± 1.4 m/s
- mass density (303.15 K, w1 = 0.0107): 775.331 ± 1.4 kg/m3
- speed of sound (303.15 K, w1 = 0.0107): 1261.1 ± 1.4 m/s
- mass density (303.15 K, w1 = 0.0124): 775.996 ± 1.4 kg/m3
- speed of sound (303.15 K, w1 = 0.0124): 1261.8 ± 1.4 m/s
- mass density (303.15 K, w1 = 0.0161): 777.417 ± 1.4 kg/m3
- speed of sound (303.15 K, w1 = 0.0161): 1262.3 ± 1.4 m/s
- mass density (303.15 K, w1 = 0.0206): 779.149 ± 1.4 kg/m3
- speed of sound (303.15 K, w1 = 0.0206): 1263.4 ± 1.4 m/s
- mass density (303.15 K, w1 = 0.0251): 780.864 ± 1.4 kg/m3
- speed of sound (303.15 K, w1 = 0.0251): 1264.4 ± 1.4 m/s
- mass density (303.15 K, w1 = 0.0298): 782.637 ± 1.4 kg/m3
- speed of sound (303.15 K, w1 = 0.0298): 1265.4 ± 1.4 m/s
- mass density (303.15 K, w1 = 0.0347): 784.553 ± 1.4 kg/m3
- speed of sound (303.15 K, w1 = 0.0347): 1266.7 ± 1.4 m/s
- mass density (303.15 K, w1 = 0.0407): 786.808 ± 1.4 kg/m3
- speed of sound (303.15 K, w1 = 0.0407): 1267.6 ± 1.4 m/s
- mass density (303.15 K, w1 = 0.0493): 790.107 ± 1.4 kg/m3
- speed of sound (303.15 K, w1 = 0.0493): 1269.6 ± 1.4 m/s
- mass density (303.15 K, w1 = 0.0605): 794.412 ± 1.4 kg/m3
- speed of sound (303.15 K, w1 = 0.0605): 1271.6 ± 1.4 m/s
- mass density (303.15 K, w1 = 1): 1312.6 ± 3.2 kg/m3
- speed of sound (303.15 K, w1 = 1): 1659.9 ± 2.6 m/s
- mass density (308.15 K, w1 = 0.0042): 767.37 ± 1.5 kg/m3
- speed of sound (308.15 K, w1 = 0.0042): 1239.6 ± 1.4 m/s
- mass density (308.15 K, w1 = 0.0061): 768.119 ± 1.5 kg/m3
- speed of sound (308.15 K, w1 = 0.0061): 1240.1 ± 1.4 m/s
- mass density (308.15 K, w1 = 0.0082): 768.949 ± 1.5 kg/m3
- speed of sound (308.15 K, w1 = 0.0082): 1240.8 ± 1.4 m/s
- mass density (308.15 K, w1 = 0.0107): 769.896 ± 1.5 kg/m3
- speed of sound (308.15 K, w1 = 0.0107): 1241.2 ± 1.4 m/s
- mass density (308.15 K, w1 = 0.0124): 770.564 ± 1.5 kg/m3
- speed of sound (308.15 K, w1 = 0.0124): 1241.7 ± 1.4 m/s
- mass density (308.15 K, w1 = 0.0161): 771.996 ± 1.4 kg/m3
- speed of sound (308.15 K, w1 = 0.0161): 1242.5 ± 1.4 m/s
- mass density (308.15 K, w1 = 0.0206): 773.734 ± 1.4 kg/m3
- speed of sound (308.15 K, w1 = 0.0206): 1243.5 ± 1.4 m/s
- mass density (308.15 K, w1 = 0.0251): 775.46 ± 1.4 kg/m3
- speed of sound (308.15 K, w1 = 0.0251): 1244.6 ± 1.4 m/s
- mass density (308.15 K, w1 = 0.0298): 777.238 ± 1.4 kg/m3
- speed of sound (308.15 K, w1 = 0.0298): 1245.6 ± 1.4 m/s
- mass density (308.15 K, w1 = 0.0347): 779.16 ± 1.4 kg/m3
- speed of sound (308.15 K, w1 = 0.0347): 1246.8 ± 1.4 m/s
- mass density (308.15 K, w1 = 0.0407): 781.426 ± 1.4 kg/m3
- speed of sound (308.15 K, w1 = 0.0407): 1248 ± 1.4 m/s
- mass density (308.15 K, w1 = 0.0493): 784.738 ± 1.4 kg/m3
- speed of sound (308.15 K, w1 = 0.0493): 1249.8 ± 1.4 m/s
- mass density (308.15 K, w1 = 0.0605): 789.059 ± 1.4 kg/m3
- speed of sound (308.15 K, w1 = 0.0605): 1252.1 ± 1.4 m/s
- mass density (308.15 K, w1 = 1): 1308.97 ± 3.2 kg/m3
- speed of sound (308.15 K, w1 = 1): 1648.3 ± 2.6 m/s

— the NIST ThermoML archive (doi:10.1007/s10765-009-0648-5)
